As a reminder, the melting point is the temperature, or range, at which the solid turns liquid.

Molecules are shown by their SMILES.

The compound `O=C(NO)[C@H](CNS(=O)(=O)c1ccc(OCc2ccc3ccccc3c2)cc1)N1CCCCC1` gave a melting point of 106 °C.

On to `O=C(O)C1Oc2cc3onc(-c4ccccc4)c3cc2O1` (configuration not stated), for which the melting point is 202 to 204 °C.

The compound `CC(=O)c1ccc(NC(=O)C(F)(F)F)nc1` registered a melting point of 147 to 149 °C.

For the compound `CCc1coc2c(-c3ccc(F)cc3)c(-c3ccc(S(C)(=O)=O)cc3)nn12`, the melting point was 177 to 179 °C.

As for `Cc1nccn1-c1nc(-c2ccc(Cl)cc2)c(CCC(=O)O)o1`, the melting point was 195 to 197 °C.

`Cc1c(F)c(=O)n(-c2cc(C(=O)OC(C)C)c(Cl)cc2F)c(=O)n1C`: the melting point lay within 112 to 115 °C.

`O=C(O)c1ccc(CO)c2ccccc12` gave a melting point of 183 to 184 °C.

Take `O=C(/C=C/c1ccccc1I)NCCO`: the melting point lay in the range of 130 to 132 °C.

With `Cc1ccc2c(c1)C=Cc1oc(C)nc1C2c1cn(C)c(=O)[nH]c1=S` (configuration not stated), the melting point was in the range of 146 to 150 °C.

On to `Cc1c(CCN(C)C(=O)OC(C)(C)C)c2cc(S(=O)(=O)c3cc(F)cc(F)c3)ccc2n1C`, for which the melting point is 158 to 162 °C.

With `CC(C)CC1(C(CCN2C(=O)c3c(F)c(F)c(F)c(F)c3C2=O)C(=O)NO)CCN(CCc2ccccc2)C1=O` (configuration not stated), the melting point was in the range of 172 to 174 °C.

With `CCOC(=O)c1nc2scc(COCc3ccc(C#N)cc3)c2c(=O)[nH]1`, the melting point fell in the range of 236 to 237 °C.

The compound `O=c1ccoc2cc(OCCCCCl)ccc12` yielded a melting point of 75 to 78 °C.

The compound `c1cc2c(c(NC3=NCCO3)c1)CCCC2` gave a melting point of 101 to 103 °C.

Compound `Nc1ccc(NCCc2ccccc2)c(S(=O)(=O)CCO)c1` came in with a melting point of 197 °C.

Compound `Cc1ccc(C)n1-c1ccc2ccc3[nH]c(=O)c(=O)n(CC(=O)Nc4ccccc4)c3c2c1` gave a melting point of more than 260 °C.

Take `CS(=O)(=O)Nc1cc(C(O)CNCCCCCCOCCC2CCCCC2)ccc1O` (configuration not stated): the melting point is 99 to 101 °C.

`Cc1cc(-c2nc3cccnn3c2-c2ccnc(NC(=O)c3cccc4ccccc34)c2)ccc1F` came in with a melting point of 252 to 253 °C.

The compound `NCc1c(NC2CCCCC2)cccc1-c1ccccc1` had a melting point of 95 to 96 °C.

As for `CC(C)N1CCNC(=O)c2ccc(Nc3ncc(Cl)c(N[C@@H]4CCCC[C@H]4NS(C)(=O)=O)n3)cc21`, the melting point lay within 189 to 191 °C.

On to `COc1nc2ccccc2cc1NC(=O)N1CCN(c2cccc(Cl)c2)CC1`, for which the melting point lay within 97 to 98 °C.

For `Cc1cccc(-c2nc3ccc(OCCN(C)C)cc3n2Cc2ccccc2C(F)(F)F)c1`, the melting point came to 93 °C.

`CCCc1nn(-c2ccc(C(F)(F)F)cn2)cc1CCCOc1cc(CCC(=O)O)cc(OC)c1` displayed a melting point of 98 to 99 °C.

`O=C(C=Cc1cccc(Br)c1)Nc1ccc(CN2CCCCC2)cc1` returned a melting point of 144 to 145 °C.

The compound `COc1cc(C(O)CS(C)(=O)=O)cc(OC)c1-n1cccc1` (configuration not stated) came in with a melting point of 192 °C.

As to `CCCCOCc1cc2ccccc2oc1=Nc1ccccc1`, the melting point lay within 86 to 88 °C.

`Cn1c2ccc(Br)cc2c2sccc(=O)c21` had a melting point of 243 to 244 °C.

On to `c1ccc(-c2nc3ccccc3n3cncc23)cc1`, for which the melting point lay in the range of 165 to 167 °C.

The compound `O=C(O)c1cn(C2CC2)c2c(Cl)c(N3CC4CCCC3CN4)c(F)cc2c1=O` (configuration not stated) yielded a melting point of 217 to 220 °C.

`CCOC(=O)C1CCc2c(n(C(C)=O)c3ccc(Cl)cc23)C1` (configuration not stated) displayed a melting point of 95 to 96 °C.

Consider `Cc1cc(SC2=C(O)CC(CCc3ccc(N)cc3)(CCc3ccc(N)cc3)OC2=O)c(C(C)(C)C)cc1CO`, for which the melting point lay in the range of 144 to 146 °C.

`Cc1cc(C)cc(NCc2ccc3nc(NCCCN4CCCCC4)n(Cc4nc(C)ccc4O)c3c2)c1` yielded a melting point of 161 °C.

Consider `O=C(Nc1cccnn1)N1CCN(c2ccnc(-c3ccc(F)cc3F)c2)CC1`, for which the melting point lay in the range of 189 to 190 °C.

Turning to `Cc1ccc(O)c(Cn2ccnc2)n1`, the melting point was 153 to 155 °C.

For `COC(=O)c1ccc2c3cccc4cccc(c5ccc(C(=O)N(C)c6ccc(C(C)(C)C)cc6)c1c25)c43`, the melting point was 272 °C.

In turn, `Cc1ccc(S(=O)(=O)N(c2ccc(C#N)cc2C#N)C(C)C)cc1` showed a melting point of 157 to 158 °C.

The compound `O=C(O)CCc1cc(OCc2cc(COc3ccc(Cl)cc3Cl)cc(OCc3ccccc3)c2)nn1-c1ccccc1` yielded a melting point of 126 to 130 °C.

With `O=C(NCCc1ccccc1CO)c1ccc([N+](=O)[O-])cc1`, the melting point lay within 137 to 138 °C.

`COC(=O)C(=C\c1ccc(OC2CCCC2)c(OC)c1)/C(=C\c1ccccc1)C(N)=O` had a melting point of 158 to 159 °C.

Turning to `Oc1nc(-c2ccccc2)nc(-c2ccccc2)n1`, the melting point was in the range of 296 to 297 °C.

In turn, `O=C(O)[C@@H]1CCC(=O)N1C(=O)c1ccccc1` had a melting point of 140 to 141 °C.

Take `COc1ncncc1[N+](=O)[O-]`: the melting point lay within 193 to 195 °C.

As for `CCCCC1(CCCC)NC(=O)c2ccccc2N1C`, the melting point fell in the range of 77 to 78 °C.

Take `Cn1c(=O)[nH]c(=O)n(-c2cc(N)c(F)cc2Cl)c1=O`: the melting point fell in the range of 244 to 245 °C.

`COc1cc(O)c(C(=O)C=Cc2ccc(C)cc2)c(OC)c1` gave a melting point of 130 °C.

The compound `Cc1cc(C)c(Nc2nc(C)ncc2S(=O)(=O)c2ccc(-c3ncccn3)cc2)c(C)c1` gave a melting point of 215 to 217 °C.

`CN1CCN(c2cnc([N+](=O)[O-])c(Cl)n2)CC1` returned a melting point of 50 °C.

`CCCCCCCC[Si](C)(C)CCSCCNC(=O)n1cc(F)c(=O)[nH]c1=O` showed a melting point of 60 to 61 °C.

As for `Cc1sc2c(Br)c3ccccc3c(-c3cc(C(C)C)c(OS(=O)(=O)c4ccc(C(=O)O)c(O)c4)c(C(C)C)c3)c2c1C`, the melting point was more than 225 °C.

Consider `COc1nc(Cl)nc(N)c1C`, for which the melting point came to 189 °C.

`CC1=C(CCC(C)CCC(=O)O)C(=O)c2ccccc2C1=O` (configuration not stated) came in with a melting point of 58 to 61 °C.

`CCn1ncc2c1ncc1c(OCCCN(C)C)nc3cc(C)nn3c12` displayed a melting point of 62 to 64 °C.

The compound `O=C(OCCCO)c1cc([N+](=O)[O-])cc([N+](=O)[O-])c1` had a melting point of 76 °C.

`O=C(O)CCC(=O)Oc1ccc(N(CCCl)CCCl)cc1` displayed a melting point of 98 to 100 °C.

As to `CCN1c2ncc(CCc3ccc(C(=O)OC)cc3)cc2C(=O)N(C)c2cccnc21`, the melting point lay within 172 to 173 °C.

`COC(=O)c1cc(OCCCCCCCCCCCCOc2ccccc2)ccc1OCc1ccccc1` displayed a melting point of 46 to 48 °C.

`CC1=C(C(=O)Nc2cc(C(=O)OC(C)C)c(C)cc2F)SCCO1` returned a melting point of 119 to 122 °C.

Consider `CC[C@H](C)C(OCc1ccccc1)[C@@H]1[C@H]([N+](=O)[O-])[C@H](c2ccccc2)N(C(=O)CN)[C@]1(C)C(=O)NCCC(=O)O` (some centres not stated), for which the melting point worked out at 116 °C.

Take `Cc1ccc(C(=O)N(C)C2CCCCC2)cc1`: the melting point lay in the range of 70 to 71 °C.

For the compound `CCOC(=O)c1c(O)c2cc(C)ccc2[nH]c1=O`, the melting point was found to be 242 °C.

Take `CC1CCN(Cc2ccc(CCC(=O)Nc3ccc(-c4ccc(Cl)cc4)cc3)cc2)CC1`: the melting point fell in the range of 150 to 151 °C.

For the compound `O=c1oc2ccccc2s1`, the melting point fell in the range of 25.8 to 27 °C.

Source of the values: a melting point compilation (Tetko et al.; mined from patent text by program, amines drawn as free bases though some values may be those of a salt).
